In PubChem BioAssay AID1963976 (Molecular Pharmacology Branch, DTP, NCI, 2024):
“And” between values parts separate entries of the source, which are not always exact repeats. Equal entries are not always repeated.

Tested on: 435261-313-R-J1-PDC tumor spheroid viability
Test: Anticancer human tumor 435261-313-R-J1-PDC patient-derived colon adenocarcinoma cell line growth inhibition [PI3K]
Conditions: spheroids with HUVEC and MSC; for viability, T/C: stronger effect = lower value
Summary of the method: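 Tumor cells grown as multi-cell spheroids with HUVEC endothelial cells and MSC fibroblast-like stroma were treated with targeted agents combined with inavolisib, alpelisib, duvelisib or copanlisib. Doses fell in half-log steps from near clinical Cmax, else from 10 microM. Viability was measured.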
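Also: spheroids exposed to compounds for 7 days.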

`CC(C)n1nc(-c2ccc3oc(N)nc3c2)c2c(N)ncnc21` + Cc1nc(NC(=O)N2CCCC2C(N)=O)sc1-c1ccnc(C(C)(C)C(F)(F)F)c1 gave an IC50 (curve of first compound, second compound 0.0316 µM) of 26.3 nM, an IC50 (curve of first compound, second compound 0.1 µM) of 20.2 nM and an IC50 (curve of first compound, second compound 0.316 µM) of 3.58 nM. The IC50 (curve of first compound, second compound 1 µM) was less than 0.316 nM, the IC50 (curve of first compound, second compound 3.16 µM) was less than 0.316 nM and the IC50 (curve of first compound, second compound 10 µM) was less than 0.316 nM. It also gave a viability, T/C (second compound 0.0316 µM, first compound 0.000316 µM) of 83.6%, a viability, T/C (second compound 0.0316 µM, first compound 0.001 µM) of 93% and a viability, T/C (second compound 0.0316 µM, first compound 0.00316 µM) of 76.7%. The viability, T/C (second compound 0.0316 µM, first compound 0.01 µM) was 47.9%, the viability, T/C (second compound 0.0316 µM, first compound 0.0316 µM) was 62% and the viability, T/C (second compound 0.0316 µM, first compound 0.1 µM) was 13.6%. For the same compound, the viability, T/C (second compound 0.1 µM, first compound 0.000316 µM) was 76.9%, the viability, T/C (second compound 0.1 µM, first compound 0.001 µM) was 71.1% and the viability, T/C (second compound 0.1 µM, first compound 0.00316 µM) was 94.3%. For the same compound, the viability, T/C (second compound 0.1 µM, first compound 0.01 µM) was 65.6%, the viability, T/C (second compound 0.1 µM, first compound 0.0316 µM) was 38.6% and the viability, T/C (second compound 0.1 µM, first compound 0.1 µM) was 15.4%. The viability, T/C (second compound 0.316 µM, first compound 0.000316 µM) was 46.4%, the viability, T/C (second compound 0.316 µM, first compound 0.001 µM) was 67.7% and the viability, T/C (second compound 0.316 µM, first compound 0.00316 µM) was 45.8%. It also gave a viability, T/C (second compound 0.316 µM, first compound 0.01 µM) of 40%, a viability, T/C (second compound 0.316 µM, first compound 0.0316 µM) of 18.3% and a viability, T/C (second compound 0.316 µM, first compound 0.1 µM) of 12.8%. The viability, T/C (second compound 1 µM, first compound 0.000316 µM) was 30.6%, the viability, T/C (second compound 1 µM, first compound 0.001 µM) was 30.5% and the viability, T/C (second compound 1 µM, first compound 0.00316 µM) was 30.3%. For the same compound, the viability, T/C (second compound 1 µM, first compound 0.01 µM) was 20.2%, the viability, T/C (second compound 1 µM, first compound 0.0316 µM) was 19.6% and the viability, T/C (second compound 1 µM, first compound 0.1 µM) was 9.5%. It also gave a viability, T/C (second compound 3.16 µM, first compound 0.000316 µM) of 13.1%, a viability, T/C (second compound 3.16 µM, first compound 0.001 µM) of 23.9% and a viability, T/C (second compound 3.16 µM, first compound 0.00316 µM) of 21.7%. It also gave a viability, T/C (second compound 3.16 µM, first compound 0.01 µM) of 19.1%, a viability, T/C (second compound 3.16 µM, first compound 0.0316 µM) of 12.1% and a viability, T/C (second compound 3.16 µM, first compound 0.1 µM) of 7.83%. It also gave a viability, T/C (second compound 10 µM, first compound 0.000316 µM) of 10.6%, a viability, T/C (second compound 10 µM, first compound 0.001 µM) of 10.1% and a viability, T/C (second compound 10 µM, first compound 0.00316 µM) of 9.88%. It also gave a viability, T/C (second compound 10 µM, first compound 0.01 µM) of 8.69%, a viability, T/C (second compound 10 µM, first compound 0.0316 µM) of 4.8% and a viability, T/C (second compound 10 µM, first compound 0.1 µM) of 4.03%.
For `C[C@@H](NC(=O)c1ncnc(N)c1Cl)c1ncc(C(=O)Nc2cc(C(F)(F)F)c(Cl)cn2)s1`, the viability, T/C (compound 0.0316 µM) was 133% and 131% and 118%, the viability, T/C (compound 0.1 µM) was 127% and 106% and 111% and the viability, T/C (compound 0.316 µM) was 154% and 79.3% and 153%. The viability, T/C (compound 1 µM) was 151% and 130% and 124%, the viability, T/C (compound 3.16 µM) was 146% and 120% and 129% and the viability, T/C (compound 10 µM) was 120% and 114% and 88.1%. It also gave an IC50 (curve of compound) greater than 10000 nM.
